The assay can be described thus: free radical inhibition assay: inhibition of polymerization of acrylic acid to polyacrylic acid. The settings on record: for % Polymerization (after 3 hours at 85° C.): 30% acrylic acid in water, 200 ml, 0.6 ml of 1% inhibitor solution, initiated with azobisisobutyronitrile, remaining acrylic acid by iodine value. An excerpt:
A presently preferred method for determining the free radical inhibitory capacity of a compound is based on the ability of such a compound to inhibit free radical polymerization of acrylic acid to polyacrylic acid. […] As will be appreciated, the amount of polyacrylic acid formed is inversely related to the amount of acrylic acid (i.e., monomer) remaining in the reaction mixture at the end of the assay. The amount of acrylic acid may be routinely determined by measuring the iodine value of the reaction mixture or by other methods known in the art for determinating unsaturation. A well-known free radical inhibitor compound such as hydroquinone mono methyl ether (HQMME) may be used as a standard inhibitor compound in the assay.
Into each of three 250 ml beakers, labeled “1,” “2,” and “3” respectively, is added 200 ml of a 30% solution of acrylic acid (in water). One-tenth gram of 1,3-di(3-methoxybenzyl)thiourea was dissolved in 9.9 grams of isopropyl alcohol to give a 1% (w/w) solution of the free radical inhibitor compound. […] One-tenth gram of azobisisobutyronitrile (a free radical initiator) was dissolved in 9.9 grams of isopropyl alcohol to provide a 1% solution of the free radical initiator. To beaker 1, containing 200 ml of the acrylic acid solution was added 0.6 ml of the 1% solution of 1,3-di(3-methoxybenzyl)thiourea. To beaker 2, containing 200 ml of the acrylic acid solution was added 0.6 ml of the 1% solution of hydroquinone mono methyl ether. To beaker 3 was added 0.6 ml of isopropyl alcohol (no inhibitor). […] After 3 hours, the beakers were removed from the hot plate to stop the reaction from progressing further, and the amount of acrylic acid which remained in the reaction mixture was determined by measuring the iodine value of an aliquot of the reaction mixture using the A.O.C.S. Method Tg 1a-64T in Official Methods And Recommended Practices Of The AOCS, by American Oil Chemists' Society, Champaign, Ill.

Consider `COc1cccc(CNC(=S)NCc2cccc(OC)c2)c1` [1,3-di(3-methoxybenzyl)thiourea, 1,3-di-(3-methoxybenzyl) thiourea], for which the “% Polymerization (after 3 hours at 85° C.)” value is 48.6%. Further, the “inhibition of the free radical polymerization reaction (in words)” value (assay of Example 10, 85° C., 3 hours) is “strongly inhibited”.

As to `COc1ccc(O)cc1` [hydroquinone mono methyl ether, reference compound], the “% Polymerization (after 3 hours at 85° C.)” value came out at 78.6%.

The values are drawn from patent US6545052B2, “Methods and compositions for inhibiting free radical polymerization in skin and hair” (Fan Tech, Ltd., priority 2000, dated 2003).
